Test results as given in patent US20080027139A1, “Use of Alpha-Ketoglutarate and Related Compounds” (priority 2004, published 2008).
Like-named read-outs stand apart in the source and are kept apart here.

Columns and labels:
[1] = system: Wistar rats with diet-induced hypercholesterolaemia; conditions: day 120; AKG doses 0.1 and 1 from day 61 for 60 days; p<0.05
Excerpt: Afterwards all animals received fodder enriched with 1% cholesterol (Sigma-Aldrich, Germany) and 10% lard in order to obtain hypercholesterolaemia. • 12 rats (6 females and 6 males) were killed on day 0 as an introduction control. • 12 rats (6 females and 6 males) were killed at day 30. • 12 rats (6 females and 6 males) were killed at day 60.
Remaining 48 rats were divided into 3 groups and the experiment continued for another 60 days on cholesteremic diet: • 1. Placebo group—24 rats (12 females and 12 males) • 2. 1 g AKG group—12 rats (6 females and 6 males) • 3. 0.1 g AKG group—12 rats (6 females and 6 males)
During the first 60 days of using cholesterol and lard enriched diet, the lipid profile was checked three times to determine the concentration of the entire cholesterol, the fraction of LDL and HDL and triglycerides. Measuring tests were performed a day before the said diet was commenced (day 0) and subsequently after 30 and 60 days of the application of the said diet. On the sixty first day of the experiment animals were divided into two groups: one receiving the placebo solution and the other receiving AKG solution (AKG in doses 0.1 and 1 (Table 9). All the time animals continued to receive experimental fodder. During the period when placebo and AKG solutions were administered, the lipid profile was checked on the 120th day of the experiment. […]

[2] = system: volunteers with a relatively high level of cholesterol
Excerpt: The experiment lasted for the total of 42 days. […] During the experiment no quantitative or qualitative restrictions regarding the diet were introduced. In the period from day 1 to day 28 the patients' lipid profile was checked every seven days in order to determine the concentration of cholesterol, fractions of LDL and HDL and triglycerides. […] Subsequent measurements of the lipid profile were taken on 42nd day of the experiment.

[3] = system: sham-operated (SHO) and ovariectomized (OVX) Wistar female rats
Method: A study was conducted on Wistar female rats kept in standard weather conditions. […] Afterwards the female rates were randomly divided into 2 groups: ovariectomy were performed in all animals in group one (OVX) and placebo operation were done in the second group (SHO). Surgical procedures were performed under general anesthesia (rometare, ketamine and atropine in doses 2, 10 and 0.05 mg/kg of bodily weight respectively.
Studies were conducted on the animals from the two groups: females received experimental solutions from the seventh day following the operation (simulation of the first period of the lack of activity of the ovarian hormones) (Experiment I 1), females aged 7 months with a 5 month period in which there was no activity of hormonal ovaries (simulation of the period with a prolonged absence of the activity of ovarian hormones) (Experiment I 2) (Tab. 2).
In each of Experiments I1 and I2 40 animals was used for each experimental doses making a total of 240 animals.
Blood samples were collected immediately after slaughter, and the plasma removed by centrifugation was stored in a safe place for further biochemical analyses.
The entire cholesterol concentration was determined by means of commonly available analytical equipment using the spectrophotometric method.

[4] = Volunteer 1, 1st week, chewable tablets of 1.28 g calcium alpha-ketoglutarate (1 g AKG), two tablets three times a day, day 1-28
[5] = Volunteer 1, 2nd week, calcium alpha-ketoglutarate tablets (1 g AKG), two tablets three times a day
[6] = Volunteer 1, 3rd week, calcium alpha-ketoglutarate tablets (1 g AKG), two tablets three times a day
[7] = Volunteer 1, 4th week, calcium alpha-ketoglutarate tablets (1 g AKG), two tablets three times a day
[8] = Volunteer 1, 6th week, after 2 weeks without AKG
[9] = Volunteer 2, 1st week, chewable tablets of 1.28 g calcium alpha-ketoglutarate (1 g AKG), two tablets three times a day, day 1-28
[10] = Volunteer 2, 2nd week, calcium alpha-ketoglutarate tablets (1 g AKG), two tablets three times a day
[11] = Volunteer 2, 3rd week, calcium alpha-ketoglutarate tablets (1 g AKG), two tablets three times a day
[12] = Volunteer 2, 4th week, calcium alpha-ketoglutarate tablets (1 g AKG), two tablets three times a day
[13] = Volunteer 2, 6th week, after 2 weeks without AKG
[14] = two volunteers, after a 14 day break in administering the preparation

In the case of `O=C(O)CCC(=O)C(=O)O` [AKG, alpha-ketoglutaric acid], the “effect on concentration of HDL (in words)” value [1] is reported as “increase”, the HDL level [2, 4] is reported as 45 mg/dL and the Total cholesterol level [2, 4] is reported as 194 mg/dL. It also gave a Triglycerides level [2, 4] of 197 mg/dL, an HDL level [2, 5] of 41 mg/dL and a Total cholesterol level [2, 5] of 196 mg/dL. The Triglycerides level [2, 5] was 304 mg/dL, the HDL level [2, 6] was 42 mg/dL and the Total cholesterol level [2, 6] was 171 mg/dL. For the same compound, the Triglycerides level [2, 6] was 269 mg/dL, the HDL level [2, 7] was 48 mg/dL and the Total cholesterol level [2, 7] was 157 mg/dL. It also gave a Triglycerides level [2, 7] of 259 mg/dL, an HDL level [2, 8] of 33 mg/dL and a Total cholesterol level [2, 8] of 197 mg/dL. The Triglycerides level [2, 8] was 375 mg/dL, the HDL level [2, 9] was 35 mg/dL and the Total cholesterol level [2, 9] was 190 mg/dL. The Triglycerides level [2, 9] was 122 mg/dL, the HDL level [2, 10] was 44 mg/dL and the Total cholesterol level [2, 10] was 213 mg/dL. For the same compound, the Triglycerides level [2, 10] was 101 mg/dL, the HDL level [2, 11] was 40 mg/dL and the Total cholesterol level [2, 11] was 199 mg/dL. It also gave a Triglycerides level [2, 11] of 199 mg/dL, an HDL level [2, 12] of 42 mg/dL and a Total cholesterol level [2, 12] of 189 mg/dL. It also gave a Triglycerides level [2, 12] of 187 mg/dL, an HDL level [2, 13] of 40 mg/dL and a Total cholesterol level [2, 13] of 215 mg/dL. For the same compound, the Triglycerides level [2, 13] was 220 mg/dL, the “effect on concentration of HDL (in words)” value ([2]; two volunteers, 28 days of tablets containing 1 g of AKG, 2 tablets 3 times a day) was “No significant effect” and the “effect on concentration of the entire cholesterol (in words)” value ([2]; two volunteers, after 28 days of tablets containing 1 g of AKG, 2 tablets 3 times a day) was “decrease”. For the same compound, the “change of concentration of HDL fraction after stopping (in words)” value [2, 14] was “statistically significant decrease”, the “change of concentration of the entire cholesterol after stopping (in words)” value [2, 14] was “increased” and the “change of concentration of triglycerides after stopping (in words)” value [2, 14] was “significant increase”. For the same compound, the “effect on concentration of triglycerides (in words)” value ([2]; two volunteers, from day 1 to day 28 of AKG tablets) was “increase”, the “effect on concentration of the entire cholesterol (in words)” value ([3]; OVX females, AKG dose 0.01 during 60 days, Experiment I-1, p=0.04, reaching the level of the control group) was “statically significant decrease” and the “effect on concentration of the entire cholesterol (in words)” value ([3]; both doses 0.01 and 0.1, OVX and SHO groups, Experiment I-2 (prolonged lack of ovarian hormones)) was “statistically significant decrease”. The “effect on concentration of the entire cholesterol (in words)” value ([3]; dose 1, females after ovariectomy relative to the control group, long-term absence of ovarian hormones (Experiment I-2)) was “decreased” and the “effect on concentration of the entire cholesterol (in words)” value ([3]; dose 1, females after ovariectomy relative to the control group, short-term absence of ovarian hormones (Experiment I-1)) was “decreased”.
